In patent US20090197957A1, “Methods and compositions for the treatment of pain” (Nuon Therapeutics, Inc., priority 2005, published 2009):

Legend:
established CIA = test: Treatment of established collagen-induced arthritis (clinical score, paw swelling, histology, relapse); type: in vivo, DBA/1 mice
Method: FIG. 2 is a graphical representation of the treatment of established CIA with 3,4-DAA. DBA/1 mice were immunised with type II collagen in CFA and monitored for development of arthritis. On day 1 of arthritis, mice were injected intraperitoneally with 3,4-DAA on a daily basis. Paw thickness was measured with callipers. The clinical scoring system was as follows: 0=normal, 1=slight swelling and/or erythema, and 2=pronounced oedematous swelling. Each limb was graded, giving a maximum score of 8 per mouse. Histological assessment of arthritis was carried out on haematoxylin and eosin stained sections using a scoring system as follows: 0, normal; 1, minimal synovitis without cartilage/bone erosion; 2, synovitis with some marginal erosion but joint architecture maintained; 3, severe synovitis and erosion with loss of normal joint architecture. There were 14 mice/group (data pooled from two separate experiments).
FIG. 5 is a graphical representation of the relapse of arthritis 4 days after cessation of therapy. Mice with established CIA (n=6) were treated with 3,4-DAA (400 mg/kg/day) from days 1 to 5 of arthritis and clinical severity of arthritis was monitored up to day 12. Arthritis is seen to relapse at around day 9.
Type II collagen was purified from bovine cartilage, as described [Williams 2004, Methods Mol. Med. 98:207-216] and solubilized by stirring overnight at 4° C. in acetic acid (0.1M) or Tris buffer (0.05 M Tris, containing 0.2 M NaCl, pH 7.4). 3,4-DAA was synthesised by Angiogen Pharmaceuticals Pty. Ltd. For in vivo studies 3,4-DAA was dissolved at a maximum concentration of 10 mg/ml in 1% sodium bicarbonate by heating for 1 h at 70° C. Upon cooling, an emulsion was formed. For in vitro studies 3,4-DAA was dissolved in dimethyl sulphoxide (DMSO). 3-Hydroxy-anthranilic acid (3-HAA) was purchased from Sigma (Poole, UK) and dissolved in PBS.
Male DBA/1 mice (8-12 weeks old) were immunized intradermally at the base of the tail with bovine type II collagen (200 μg) emulsified in complete Freund's adjuvant (CFA; Difco, West Molesley, UK). Arthritis was monitored clinically using the following scoring system: 0=normal, 1=slight swelling and/or erythema, and 2=pronounced oedematous swelling. Each limb was graded, giving a maximum score of 8 per mouse. In addition, paw-swelling was measured using callipers.
Histopathological assessment of arthritis was carried out in a ‘blinded’ fashion on decalcified haematoxylin and eosin stained sections using a scoring system as follows: 0, normal; 1, minimal synovitis without cartilage/bone erosion; 2, synovitis with some marginal erosion but joint architecture maintained; 3, severe synovitis and erosion with loss of normal joint architecture. This research was approved by the local ethical review process committee and by the Home Office of Great Britain.
The ability of 3,4-DAA to treat established CIA was tested. Mice were immunised with type II collagen in CFA. On day 1 of clinical arthritis (the day that arthritis was first observed) mice were randomly assigned to different treatment groups and given 3,4-DAA (100 mg/kg/day, 200 mg/kg/day or 400 mg/kg/day) or vehicle alone over a 10 day period. […] Significant differences between 3,4-DAA treated and control mice were observed from day 3 until the end of the treatment period (day 10). On day 10 the mice were killed and the first paw to show clinical evidence of arthritis was processed for histology. Joints were examined ‘blindly’ for severity of inflammation and joint erosion.
Therefore, it is clearly of interest to establish what happens in vivo when treatment with 3,4-DAA is stopped. Is there a disease flare and if so, does it occur immediately after cessation of treatment? […] Treatment was then stopped and mice were monitored for a further 7 days.

purified B cells = test: B cell proliferation in vitro (anti-CD40, 3H-thymidine incorporation); type: cell-based; details: anti-CD40 stimulation, 72 h; for IC50: B-cell, read-out: IC50 for inhibition of B cell proliferation; for B cell proliferation: varying doses
Method: (§1) FIG. 7 is a graphical representation depicting that 3,4-DAA and 3-HAA inhibit B and T cell proliferation in vitro. Purified B and T cells were stimulated for 72 h with anti-CD40 (a), or anti-CD3/anti-CD28 (b) respectively, in the presence of varying doses of 3,4-DAA, or 3-HAA.
(§2) A single cell suspension was prepared by pushing splenic tissue through a cell strainer, and erythrocytes were lysed using an ammonium chloride solution (Sigma, St Louis, Mo.). B cells were positively enriched by using anti-IgM microbeads (BD Pharmingen), and T cells were positively enriched using anti-CD4 MACS microbeads, according to the manufacturer's guidelines (Miltenyi Biotec, Bergisch Gladbach, Germany). Purity was assessed by flow cytometric analysis (B cell>90% CD19+, T cell>90% CD4+). Cells were cultured at 5×10^5 cells/ml in 200 μl complete RPMI, as above, in a flat bottom 96-well plate and cultured for 72 h. B cells were stimulated with anti-CD40 monoclonal antibody (10 μg/ml; BD), and T cells were stimulated with 5 μg/ml plate-bound anti-CD3 (ebiosciences) plus 5 μg/ml soluble anti-CD28 (ebiosciences). 3,4-DAA, 3-HAA, or vehicle (DMSO) was added at graded concentrations immediately prior to stimulation. 48 hours after stimulation, 100 μl culture medium was collected, and cells were pulsed with 1 μCi ^3H thymidine per well for 18 h. Cells were then harvested and plates assessed for thymidine incorporation. Each assay was performed on a minimum of 3 occasions. IFN-γ, IL-10 and IL-5 levels were assessed in the culture medium by ELISA, as above.
(§3) Activation of purified B (FIG. 7a) and T cells (FIG. 7b) was induced by anti-CD40, and anti-CD3/CD28 respectively, and proliferation was assessed by ^3H-thymidine incorporation. […] Inhibition of proliferation was also observed when B cells were stimulated with LPS or anti-IgM. […] It was concluded that the effects of 3,4-DAA and 3-HAA on T and B cells in vitro were remarkably similar, though not identical. It is of also note that 3-HAA had no action on inflammation or allodynia, when administered therapeutically in CIA at doses of up to 400 mg/kg/day.

T-cells = test: Cytokine production by stimulated T cells in vitro (ELISA); type: cell-based; details: anti-CD3/anti-CD28 stimulation, graded concentrations
Method: as §1, §2, §3

purified T cells = test: T cell proliferation in vitro (anti-CD3/anti-CD28, 3H-thymidine incorporation); type: cell-based; details: anti-CD3/anti-CD28 stimulation, 72 h; for IC50: T-cell, read-out: IC50 for inhibition of T cell proliferation; for T cell proliferation: varying doses
Method: as §1, §2, §3

[1] = established CIA, 100, 200 or 400 mg/kg/day over 10 days
[2] = up to 10 days therapy, 3,4-DAA 200 mg/kg/day, dexamethasone 0.5 mg/kg/2 days

SMILES | action on inflammation in CIA (established CIA; administered therapeutically at doses of up to 400 mg/kg/day) | IC50 (purified B cells) [µM] | B cell proliferation (purified B cells) | IFN-γ production by T-cells (T-cells) | IL-5 production by T-cells (T-cells) | IL-10 production by T-cells (T-cells) | IC50 (purified T cells) [µM] | T cell proliferation (purified T cells) | arthritis severity during the treatment period (established CIA; 400 mg/kg/day from day 1 to day 5 of arthritis) | day of arthritis on which exacerbation/relapse was observed after treatment stopped on day 5 (established CIA; 400 mg/kg/day from days 1 to 5, monitored up to day 12) [days] | clinical scores (established CIA; [1]) | paw-swelling (established CIA; [1]) | histological severity of arthritis (established CIA; established CIA, 100, 200 or 400 mg/kg/day, day 10) | clinical score (established CIA; [2]) | paw swelling (established CIA; [2])
Nc1c(O)cccc1C(=O)O [3-Hydroxyanthranilic acid] | no action | 65 | dose-dependently inhibited | dose-dependently reduced | increased | increased | 100 | dose-dependently inhibited |  |  |  |  |  |  | 
COc1ccc(/C=C/C(=O)Nc2ccccc2C(=O)O)cc1OC [Tranilast, 2-[[3-(3,4-dimethoxyphenyl)-1-oxo-2-propenyl]amino]benzoic acid] |  | 73 | dose-dependently inhibited | dose-dependently reduced | dose-dependently inhibited | dose-dependently inhibited | 28 | dose-dependently inhibited | dramatic reduction | 9 | dose-dependent reduction | dose-dependent reduction | dose-dependent reduction | significantly reduced | significantly reduced
